Measured values taken from patent US10927106B2, “Benzothiazole derivatives as DYRK1 inhibitors” (PHARMASUM THERAPEUTICS AS, priority 2017, dated 2021).
Read-outs that look alike come from different tables or passages of the source.

Key:
Assay in all cases: Kinase profiling, 33P ATP filter binding assay
Type in all cases: biochemical
HIPK1 = HIPK1 (Homo sapiens (Human), UniProt Q86Z02); conditions: 1 micromolar inhibitor concentration, read-out: percentage inhibition
PKCa = PKCa (Homo sapiens (Human), UniProt P17252); conditions: 1 micromolar inhibitor concentration, read-out: percentage inhibition
OSR1 = OSR1 (Homo sapiens (Human), UniProt O95747); conditions: 1 micromolar inhibitor concentration, read-out: percentage inhibition
PAK4 = PAK4 (Homo sapiens (Human), UniProt O96013); conditions: 1 micromolar inhibitor concentration, read-out: percentage inhibition
MEKK1 = MEKK1 (Homo sapiens (Human), UniProt Q13233); conditions: 1 micromolar inhibitor concentration, read-out: percentage inhibition
PLK1 = PLK1 (Homo sapiens (Human), UniProt P53350); conditions: 1 micromolar inhibitor concentration, read-out: percentage inhibition
MST4 = MST4 (Homo sapiens (Human), UniProt Q9P289); conditions: 1 micromolar inhibitor concentration, read-out: percentage inhibition
Chain of MST4 (Q9P289 whole entry, species assumed): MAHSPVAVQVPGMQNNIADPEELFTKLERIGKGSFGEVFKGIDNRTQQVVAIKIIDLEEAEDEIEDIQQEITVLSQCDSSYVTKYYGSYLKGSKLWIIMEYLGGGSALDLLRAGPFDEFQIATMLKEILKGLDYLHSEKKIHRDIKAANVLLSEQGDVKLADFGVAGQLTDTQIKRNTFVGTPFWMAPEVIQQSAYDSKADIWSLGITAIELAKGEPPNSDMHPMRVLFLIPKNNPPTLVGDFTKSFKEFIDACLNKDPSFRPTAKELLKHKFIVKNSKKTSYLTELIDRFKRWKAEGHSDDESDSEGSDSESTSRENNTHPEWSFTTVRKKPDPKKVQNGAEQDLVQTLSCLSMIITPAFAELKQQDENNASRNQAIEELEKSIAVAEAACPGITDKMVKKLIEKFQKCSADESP

MPSK1 = MPSK1 (Homo sapiens (Human), UniProt O75716); conditions: 1 micromolar inhibitor concentration, read-out: percentage inhibition
TLK1 = TLK1 (Homo sapiens (Human), UniProt Q9UKI8); conditions: 1 micromolar inhibitor concentration, read-out: percentage inhibition
Lck = Lck (Homo sapiens (Human), UniProt P06239); conditions: 1 micromolar inhibitor concentration, read-out: percentage inhibition
Chain of Lck (P06239 whole entry, species assumed): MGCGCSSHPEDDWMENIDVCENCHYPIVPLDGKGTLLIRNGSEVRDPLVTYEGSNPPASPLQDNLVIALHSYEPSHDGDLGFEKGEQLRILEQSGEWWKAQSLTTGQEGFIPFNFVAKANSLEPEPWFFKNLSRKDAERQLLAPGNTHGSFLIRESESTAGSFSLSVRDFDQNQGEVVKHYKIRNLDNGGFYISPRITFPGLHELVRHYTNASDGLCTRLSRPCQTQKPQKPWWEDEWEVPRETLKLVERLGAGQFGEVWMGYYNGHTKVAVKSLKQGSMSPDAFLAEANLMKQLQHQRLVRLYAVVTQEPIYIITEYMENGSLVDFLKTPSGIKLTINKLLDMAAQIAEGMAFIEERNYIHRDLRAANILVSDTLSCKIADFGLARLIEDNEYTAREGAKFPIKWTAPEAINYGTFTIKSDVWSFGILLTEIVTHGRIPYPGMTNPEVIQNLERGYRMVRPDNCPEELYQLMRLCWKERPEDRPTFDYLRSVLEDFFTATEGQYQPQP

SIK3 = SIK3 (Homo sapiens (Human), UniProt Q9Y2K2); conditions: 1 micromolar inhibitor concentration, read-out: percentage inhibition
CHK2 = CHK2 (Homo sapiens (Human), UniProt O96017); conditions: 1 micromolar inhibitor concentration, read-out: percentage inhibition
TAO1 = TAO1 (Homo sapiens (Human), UniProt Q7L7X3); conditions: 1 micromolar inhibitor concentration, read-out: percentage inhibition
SYK = SYK (Homo sapiens (Human), UniProt P43405); conditions: 1 micromolar inhibitor concentration, read-out: percentage inhibition
MELK = MELK (Homo sapiens (Human), UniProt Q14680); conditions: 1 micromolar inhibitor concentration, read-out: percentage inhibition
PDGFRA = PDGFRA (Homo sapiens (Human), UniProt P16234); conditions: 1 micromolar inhibitor concentration, read-out: percentage inhibition
EIF2AK3 = EIF2AK3 (Homo sapiens (Human), UniProt Q9NZJ5); conditions: 1 micromolar inhibitor concentration, read-out: percentage inhibition
Chain of EIF2AK3 (Q9NZJ5 30-1116, species assumed): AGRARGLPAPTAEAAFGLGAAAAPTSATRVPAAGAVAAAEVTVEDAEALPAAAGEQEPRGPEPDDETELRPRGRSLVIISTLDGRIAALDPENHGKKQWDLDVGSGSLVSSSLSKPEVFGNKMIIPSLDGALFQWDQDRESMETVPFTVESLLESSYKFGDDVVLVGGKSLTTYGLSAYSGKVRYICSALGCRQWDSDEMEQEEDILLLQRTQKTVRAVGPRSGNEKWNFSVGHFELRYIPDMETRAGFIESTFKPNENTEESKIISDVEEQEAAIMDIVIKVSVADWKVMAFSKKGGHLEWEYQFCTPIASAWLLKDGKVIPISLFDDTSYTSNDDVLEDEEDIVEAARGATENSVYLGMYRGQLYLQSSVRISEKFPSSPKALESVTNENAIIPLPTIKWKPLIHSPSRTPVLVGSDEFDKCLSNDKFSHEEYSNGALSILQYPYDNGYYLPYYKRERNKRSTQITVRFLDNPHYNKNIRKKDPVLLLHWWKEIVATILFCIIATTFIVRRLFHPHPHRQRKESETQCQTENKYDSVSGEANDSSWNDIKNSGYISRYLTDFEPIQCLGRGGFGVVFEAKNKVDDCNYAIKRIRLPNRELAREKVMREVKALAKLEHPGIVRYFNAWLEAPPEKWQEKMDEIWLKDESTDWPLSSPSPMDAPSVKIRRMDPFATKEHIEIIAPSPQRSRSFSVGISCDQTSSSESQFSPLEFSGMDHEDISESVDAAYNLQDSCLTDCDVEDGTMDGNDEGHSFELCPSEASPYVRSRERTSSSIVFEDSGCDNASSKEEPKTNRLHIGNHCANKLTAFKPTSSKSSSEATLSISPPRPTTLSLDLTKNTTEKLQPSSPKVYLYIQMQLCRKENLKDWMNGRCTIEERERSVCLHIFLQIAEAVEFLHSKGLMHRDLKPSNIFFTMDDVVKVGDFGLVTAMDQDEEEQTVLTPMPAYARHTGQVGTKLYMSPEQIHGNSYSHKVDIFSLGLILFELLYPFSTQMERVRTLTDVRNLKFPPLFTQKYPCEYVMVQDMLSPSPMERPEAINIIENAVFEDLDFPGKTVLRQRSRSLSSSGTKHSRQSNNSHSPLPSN

HIPK2 = HIPK2 (Homo sapiens (Human), UniProt Q9H2X6); conditions: 1 micromolar inhibitor concentration, read-out: percentage inhibition
MKK2 = MKK2 (Homo sapiens (Human), UniProt P36507); conditions: 1 micromolar inhibitor concentration, read-out: percentage inhibition
Chain of MKK2 (P36507 whole entry, species assumed): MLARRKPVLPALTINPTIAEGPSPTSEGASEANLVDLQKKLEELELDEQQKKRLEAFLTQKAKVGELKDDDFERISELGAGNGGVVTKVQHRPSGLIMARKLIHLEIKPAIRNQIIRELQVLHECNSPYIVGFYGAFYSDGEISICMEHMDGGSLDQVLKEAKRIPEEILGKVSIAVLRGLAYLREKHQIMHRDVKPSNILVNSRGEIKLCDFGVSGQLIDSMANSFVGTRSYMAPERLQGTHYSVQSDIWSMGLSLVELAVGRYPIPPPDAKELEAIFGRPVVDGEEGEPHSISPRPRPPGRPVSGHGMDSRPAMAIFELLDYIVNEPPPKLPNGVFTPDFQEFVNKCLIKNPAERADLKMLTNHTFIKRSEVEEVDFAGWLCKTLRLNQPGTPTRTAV

PDK1 = PDK1 (Homo sapiens (Human), UniProt O15530); conditions: 1 micromolar inhibitor concentration, read-out: percentage inhibition
MAPKAP-K2 = MAPKAP-K2 (Homo sapiens (Human), UniProt P49137); conditions: 1 micromolar inhibitor concentration, read-out: percentage inhibition
FGF-R1 = FGF-R1 (Homo sapiens (Human), UniProt P11362); conditions: 1 micromolar inhibitor concentration, read-out: percentage inhibition
MST3 = MST3 (Homo sapiens (Human), UniProt Q9Y6E0); conditions: 1 micromolar inhibitor concentration, read-out: percentage inhibition
IKKe = IKKe (Homo sapiens (Human), UniProt Q14164); conditions: 1 micromolar inhibitor concentration, read-out: percentage inhibition
ERK5 = ERK5 (Homo sapiens (Human), UniProt Q13164); conditions: 1 micromolar inhibitor concentration, read-out: percentage inhibition
Chain of ERK5 (Q13164 whole entry, species assumed): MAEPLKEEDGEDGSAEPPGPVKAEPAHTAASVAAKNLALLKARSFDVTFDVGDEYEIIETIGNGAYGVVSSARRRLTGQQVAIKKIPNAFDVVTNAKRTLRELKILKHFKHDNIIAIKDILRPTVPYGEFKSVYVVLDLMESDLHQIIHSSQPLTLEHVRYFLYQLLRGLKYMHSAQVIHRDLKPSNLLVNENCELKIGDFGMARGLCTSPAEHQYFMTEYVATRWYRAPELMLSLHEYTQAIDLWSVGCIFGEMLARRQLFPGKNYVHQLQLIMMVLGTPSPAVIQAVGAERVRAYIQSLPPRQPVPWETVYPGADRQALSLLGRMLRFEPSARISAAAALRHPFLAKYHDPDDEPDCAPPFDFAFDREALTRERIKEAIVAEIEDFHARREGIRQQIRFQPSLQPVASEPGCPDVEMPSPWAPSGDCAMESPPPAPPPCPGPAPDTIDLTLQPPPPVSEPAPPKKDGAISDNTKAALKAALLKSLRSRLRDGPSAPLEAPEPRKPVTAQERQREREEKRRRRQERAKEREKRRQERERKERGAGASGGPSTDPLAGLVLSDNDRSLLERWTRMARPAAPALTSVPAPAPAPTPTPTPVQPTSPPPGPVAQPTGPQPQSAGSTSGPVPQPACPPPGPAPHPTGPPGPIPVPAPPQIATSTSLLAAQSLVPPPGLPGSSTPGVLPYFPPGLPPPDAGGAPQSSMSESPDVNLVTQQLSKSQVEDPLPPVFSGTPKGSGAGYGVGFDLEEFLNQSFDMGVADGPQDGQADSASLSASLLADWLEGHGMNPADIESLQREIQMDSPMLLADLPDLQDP

CK2 = CK2 (Homo sapiens (Human), UniProt P68400); conditions: 1 micromolar inhibitor concentration, read-out: percentage inhibition
MSK1 = MSK1 (Homo sapiens (Human), UniProt O75582); conditions: 1 micromolar inhibitor concentration, read-out: percentage inhibition
EPH-B1 = EPH-B1 (Homo sapiens (Human), UniProt P54762); conditions: 1 micromolar inhibitor concentration, read-out: percentage inhibition
CK1δ = CK1δ (Homo sapiens (Human), UniProt P48730); conditions: read-out: percentage inhibition
Protocol: The determination of protein kinase inhibition was performed at the International Centre for Kinase Profiling at the University of Dundee, UK. […] The ATP concentrations were at or below the calculated Km for ATP for each particular kinase.

RIPK2 = RIPK2 (Homo sapiens (Human), UniProt O43353); conditions: 1 micromolar inhibitor concentration, read-out: percentage inhibition
Chain of RIPK2 (O43353 whole entry, species assumed): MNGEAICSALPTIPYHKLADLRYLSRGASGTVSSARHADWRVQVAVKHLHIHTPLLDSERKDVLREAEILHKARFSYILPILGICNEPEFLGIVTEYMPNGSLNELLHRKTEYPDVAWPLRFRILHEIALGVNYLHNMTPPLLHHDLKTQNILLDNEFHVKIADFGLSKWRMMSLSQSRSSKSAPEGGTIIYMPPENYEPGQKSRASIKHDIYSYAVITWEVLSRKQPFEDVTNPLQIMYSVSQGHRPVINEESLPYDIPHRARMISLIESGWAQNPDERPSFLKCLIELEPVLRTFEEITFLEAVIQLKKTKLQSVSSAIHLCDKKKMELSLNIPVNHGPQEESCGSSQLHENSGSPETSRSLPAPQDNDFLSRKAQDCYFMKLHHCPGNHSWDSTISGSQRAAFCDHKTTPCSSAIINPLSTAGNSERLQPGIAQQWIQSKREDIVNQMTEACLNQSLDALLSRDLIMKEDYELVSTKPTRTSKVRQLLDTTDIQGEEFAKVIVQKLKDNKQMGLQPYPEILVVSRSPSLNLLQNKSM

PIM2 = PIM2 (Homo sapiens (Human), UniProt Q9P1W9); conditions: 1 micromolar inhibitor concentration, read-out: percentage inhibition
MKK1 = MKK1 (Homo sapiens (Human), UniProt Q02750); conditions: 1 micromolar inhibitor concentration, read-out: percentage inhibition
PAK2 = PAK2 (Homo sapiens (Human), UniProt Q13177); conditions: 1 micromolar inhibitor concentration, read-out: percentage inhibition
Chain of PAK2 (Q13177 whole entry, species assumed): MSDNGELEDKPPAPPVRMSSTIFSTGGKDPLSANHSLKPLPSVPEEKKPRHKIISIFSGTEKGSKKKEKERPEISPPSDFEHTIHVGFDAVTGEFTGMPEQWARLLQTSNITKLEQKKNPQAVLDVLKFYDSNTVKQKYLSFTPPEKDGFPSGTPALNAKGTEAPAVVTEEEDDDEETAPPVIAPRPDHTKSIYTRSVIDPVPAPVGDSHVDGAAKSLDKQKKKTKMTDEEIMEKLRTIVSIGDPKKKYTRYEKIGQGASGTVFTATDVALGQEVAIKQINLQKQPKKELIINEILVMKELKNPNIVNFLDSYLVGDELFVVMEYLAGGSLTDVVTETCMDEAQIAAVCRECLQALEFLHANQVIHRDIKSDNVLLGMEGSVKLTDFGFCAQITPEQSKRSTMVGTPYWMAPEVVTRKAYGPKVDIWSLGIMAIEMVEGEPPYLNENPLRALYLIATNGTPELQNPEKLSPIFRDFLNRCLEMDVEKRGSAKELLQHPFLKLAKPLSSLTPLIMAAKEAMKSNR

EPH-A2 = EPH-A2 (Homo sapiens (Human), UniProt P29317); conditions: 1 micromolar inhibitor concentration, read-out: percentage inhibition
IRAK4 = IRAK4 (Homo sapiens (Human), UniProt Q9NWZ3); conditions: 1 micromolar inhibitor concentration, read-out: percentage inhibition
PRK2 = PRK2 (Homo sapiens (Human), UniProt Q16513); conditions: 1 micromolar inhibitor concentration, read-out: percentage inhibition
TrkA = TrkA (Homo sapiens (Human), UniProt P04629); conditions: 1 micromolar inhibitor concentration, read-out: percentage inhibition
Src = Src (Homo sapiens (Human), UniProt P12931); conditions: 1 micromolar inhibitor concentration, read-out: percentage inhibition
CDK2-Cyclin A = CDK2-Cyclin A (Homo sapiens (Human), UniProt P24941); conditions: 1 micromolar inhibitor concentration, read-out: percentage inhibition
EPH-B3 = EPH-B3 (Homo sapiens (Human), UniProt P54753); conditions: 1 micromolar inhibitor concentration, read-out: percentage inhibition
BTK = BTK (Homo sapiens (Human), UniProt Q06187); conditions: 1 micromolar inhibitor concentration, read-out: percentage inhibition
SIK2 = SIK2 (Homo sapiens (Human), UniProt Q9H0K1); conditions: 1 micromolar inhibitor concentration, read-out: percentage inhibition

Compound: COc1ccc2sc(-c3cncc(NC(C)=O)c3)nc2c1 [4-93, N-(5-(5-Methoxybenzo[d]thiazol-2-yl)pyridin-3-yl)acetamide]
- inhibition at 1 µM (HIPK1): 0%
- inhibition at 1 µM (PKCa): 0%
- inhibition at 1 µM (OSR1): 0%
- inhibition at 1 µM (PAK4): 0%
- inhibition at 1 µM (MEKK1): 0%
- inhibition at 1 µM (PLK1): 0%
- inhibition at 1 µM (MST4): 0%
- inhibition at 1 µM (MPSK1): 0%
- inhibition at 1 µM (TLK1): 0%
- inhibition at 1 µM (Lck): 7%
- inhibition at 1 µM (SIK3): 0%
- inhibition at 1 µM (CHK2): 0%
- inhibition at 1 µM (TAO1): 0%
- inhibition at 1 µM (SYK): 0%
- inhibition at 1 µM (MELK): 1%
- inhibition at 1 µM (PDGFRA): 0%
- inhibition at 1 µM (EIF2AK3): 0%
- inhibition at 1 µM (HIPK2): 10%
- inhibition at 1 µM (MKK2): 25%
- inhibition at 1 µM (PDK1): 0%
- inhibition at 1 µM (MAPKAP-K2): 0%
- inhibition at 1 µM (FGF-R1): 0%
- inhibition at 1 µM (MST3): 0%
- inhibition at 1 µM (IKKe): 0%
- inhibition at 1 µM (ERK5): 28%
- inhibition at 1 µM (CK2): 0%
- inhibition at 1 µM (MSK1): 0%
- inhibition at 1 µM (EPH-B1): 0%
- inhibition at 1 µM (CK1δ): 1%
- inhibition at 1 µM (RIPK2): 0%
- inhibition at 1 µM (PIM2): 0%
- inhibition at 1 µM (MKK1): 0%
- inhibition at 1 µM (PAK2): 0%
- inhibition at 1 µM (EPH-A2): 0%
- inhibition at 1 µM (IRAK4): 12%
- inhibition at 1 µM (PRK2): 0%
- inhibition at 1 µM (TrkA): 0%
- inhibition at 1 µM (Src): 0%
- inhibition at 1 µM (CDK2-Cyclin A): 0%
- inhibition at 1 µM (EPH-B3): 0%
- inhibition at 1 µM (BTK): 8%
- inhibition at 1 µM (SIK2): 0%

Compound: CS(=O)(=O)Nc1cncc(-c2nc3cc(O)ccc3s2)c1 [4-99, N-(5-(5-Hydroxybenzo[d]thiazol-2-yl)pyridin-3-yl)methanesulfonamide]
- inhibition at 1 µM (HIPK1): 0%
- inhibition at 1 µM (PKCa): 0%
- inhibition at 1 µM (OSR1): 0%
- inhibition at 1 µM (PAK4): 0%
- inhibition at 1 µM (MEKK1): 0%
- inhibition at 1 µM (PLK1): 0%
- inhibition at 1 µM (MST4): 0%
- inhibition at 1 µM (MPSK1): 11%
- inhibition at 1 µM (TLK1): 0%
- inhibition at 1 µM (Lck): 0%
- inhibition at 1 µM (SIK3): 0%
- inhibition at 1 µM (CHK2): 0%
- inhibition at 1 µM (TAO1): 0%
- inhibition at 1 µM (SYK): 0%
- inhibition at 1 µM (MELK): 0%
- inhibition at 1 µM (PDGFRA): 0%
- inhibition at 1 µM (EIF2AK3): 0%
- inhibition at 1 µM (HIPK2): 0%
- inhibition at 1 µM (MKK2): 0%
- inhibition at 1 µM (PDK1): 0%
- inhibition at 1 µM (MAPKAP-K2): 0%
- inhibition at 1 µM (FGF-R1): 0%
- inhibition at 1 µM (MST3): 0%
- inhibition at 1 µM (IKKe): 0%
- inhibition at 1 µM (ERK5): 7%
- inhibition at 1 µM (CK2): 6%
- inhibition at 1 µM (MSK1): 0%
- inhibition at 1 µM (EPH-B1): 0%
- inhibition at 1 µM (CK1δ; CK1δ, 1 micromolar inhibitor concentration): 8%
- inhibition at 1 µM (RIPK2): 24%
- inhibition at 1 µM (PIM2): 0%
- inhibition at 1 µM (MKK1): 0%
- inhibition at 1 µM (PAK2): 0%
- inhibition at 1 µM (EPH-A2): 0%
- inhibition at 1 µM (IRAK4): 8%
- inhibition at 1 µM (PRK2): 0%
- inhibition at 1 µM (TrkA): 0%
- inhibition at 1 µM (Src): 0%
- inhibition at 1 µM (CDK2-Cyclin A): 6%
- inhibition at 1 µM (EPH-B3): 2%
- inhibition at 1 µM (BTK): 0%
- inhibition at 1 µM (SIK2): 0%
